The results in this text go back to ChEMBL document CHEMBL5518193, “Discovery of N-alkyl-N-benzyl thiazoles as novel TRPC antagonists for the treatment of glioblastoma multiforme” (Eur J Med Chem, 2024).

Each structure is given as a SMILES string. Activity calls are given as the source filed them. The calls are words filed in the database; no cut-off is given here.

One experiment relates to U-87 MG. The experiment in a line: Antitumor activity against human U87 cells xenografted in BALB/c nude mouse assessed as tumor growth inhibition at 50 mg/kg/day administered as liposome encapsulated form for 15 days and measured every 3 days by vernier caliper. As to conditions: 360 h, time 15 day, read-out: TGI. It is filed as functional, U-87MG ATCC. In general terms: A xenograft is tissue or cells of one species grown in another, often human tumour cells in immunodeficient mice.

Experiment [1] concerns the target T1, Short transient receptor potential channel 6 (Homo sapiens, UniProt Q9Y210).
T1 sequence (Q9Y210 whole entry): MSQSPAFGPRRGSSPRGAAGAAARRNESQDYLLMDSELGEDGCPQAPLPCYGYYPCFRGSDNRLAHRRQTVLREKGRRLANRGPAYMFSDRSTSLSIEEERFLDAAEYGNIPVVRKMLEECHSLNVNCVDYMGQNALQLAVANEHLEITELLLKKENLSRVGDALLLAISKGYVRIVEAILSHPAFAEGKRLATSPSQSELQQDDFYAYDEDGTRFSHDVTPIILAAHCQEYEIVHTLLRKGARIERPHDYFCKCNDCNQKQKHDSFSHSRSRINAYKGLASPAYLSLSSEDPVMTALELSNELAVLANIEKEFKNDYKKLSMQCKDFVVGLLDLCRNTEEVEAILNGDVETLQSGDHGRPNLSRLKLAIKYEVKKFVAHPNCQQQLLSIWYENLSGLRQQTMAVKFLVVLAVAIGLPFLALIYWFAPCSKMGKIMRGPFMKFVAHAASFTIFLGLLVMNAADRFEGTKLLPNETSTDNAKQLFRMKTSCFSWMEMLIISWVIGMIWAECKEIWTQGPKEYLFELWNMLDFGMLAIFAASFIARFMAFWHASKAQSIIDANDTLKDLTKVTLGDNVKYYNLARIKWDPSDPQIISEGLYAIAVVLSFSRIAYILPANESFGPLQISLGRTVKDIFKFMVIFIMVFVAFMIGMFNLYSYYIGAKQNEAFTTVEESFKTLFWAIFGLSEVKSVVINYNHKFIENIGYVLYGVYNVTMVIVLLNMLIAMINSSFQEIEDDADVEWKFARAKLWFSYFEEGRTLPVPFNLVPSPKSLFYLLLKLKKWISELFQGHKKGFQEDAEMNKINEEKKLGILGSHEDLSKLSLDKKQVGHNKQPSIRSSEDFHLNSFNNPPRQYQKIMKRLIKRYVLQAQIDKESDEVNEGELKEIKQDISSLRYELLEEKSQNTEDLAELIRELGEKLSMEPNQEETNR
In words: Antagonist activity at TRPC6 (unknown origin) assessed as inhibition of channel activity.

Experiment [2] has as its target T2, Short transient receptor potential channel 3 (Homo sapiens, UniProt Q13507).
T2 sequence (Q13507 whole entry): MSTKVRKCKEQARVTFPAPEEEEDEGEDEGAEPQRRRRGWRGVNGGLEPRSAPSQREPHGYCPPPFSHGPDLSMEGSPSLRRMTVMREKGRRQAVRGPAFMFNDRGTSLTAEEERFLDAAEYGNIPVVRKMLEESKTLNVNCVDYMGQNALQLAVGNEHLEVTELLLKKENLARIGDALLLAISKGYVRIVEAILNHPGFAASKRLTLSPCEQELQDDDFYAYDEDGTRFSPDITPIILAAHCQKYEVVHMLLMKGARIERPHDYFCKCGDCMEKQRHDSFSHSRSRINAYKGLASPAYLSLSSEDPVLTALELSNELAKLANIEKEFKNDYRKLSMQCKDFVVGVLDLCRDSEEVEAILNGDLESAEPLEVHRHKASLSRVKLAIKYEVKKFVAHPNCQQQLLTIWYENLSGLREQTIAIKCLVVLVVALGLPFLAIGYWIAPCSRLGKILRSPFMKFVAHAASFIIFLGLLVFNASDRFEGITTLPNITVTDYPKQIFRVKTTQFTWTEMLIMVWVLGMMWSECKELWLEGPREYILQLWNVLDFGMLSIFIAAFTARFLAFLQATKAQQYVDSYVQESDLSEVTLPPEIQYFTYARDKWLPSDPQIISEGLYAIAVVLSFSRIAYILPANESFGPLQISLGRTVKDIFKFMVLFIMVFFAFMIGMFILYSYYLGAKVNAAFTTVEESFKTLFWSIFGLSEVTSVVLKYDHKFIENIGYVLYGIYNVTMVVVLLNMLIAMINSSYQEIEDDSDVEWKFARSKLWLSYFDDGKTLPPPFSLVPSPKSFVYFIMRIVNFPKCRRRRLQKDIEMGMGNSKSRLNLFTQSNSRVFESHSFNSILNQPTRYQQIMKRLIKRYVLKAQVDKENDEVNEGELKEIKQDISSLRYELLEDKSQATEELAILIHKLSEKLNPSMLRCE
In words: Antagonist activity at TRPC3 (unknown origin) assessed as inhibition of channel activity.

Experiment [3] deals with T3, Short transient receptor potential channel 6 (Mus musculus) (UniProt Q61143).
T3 sequence (whole entry): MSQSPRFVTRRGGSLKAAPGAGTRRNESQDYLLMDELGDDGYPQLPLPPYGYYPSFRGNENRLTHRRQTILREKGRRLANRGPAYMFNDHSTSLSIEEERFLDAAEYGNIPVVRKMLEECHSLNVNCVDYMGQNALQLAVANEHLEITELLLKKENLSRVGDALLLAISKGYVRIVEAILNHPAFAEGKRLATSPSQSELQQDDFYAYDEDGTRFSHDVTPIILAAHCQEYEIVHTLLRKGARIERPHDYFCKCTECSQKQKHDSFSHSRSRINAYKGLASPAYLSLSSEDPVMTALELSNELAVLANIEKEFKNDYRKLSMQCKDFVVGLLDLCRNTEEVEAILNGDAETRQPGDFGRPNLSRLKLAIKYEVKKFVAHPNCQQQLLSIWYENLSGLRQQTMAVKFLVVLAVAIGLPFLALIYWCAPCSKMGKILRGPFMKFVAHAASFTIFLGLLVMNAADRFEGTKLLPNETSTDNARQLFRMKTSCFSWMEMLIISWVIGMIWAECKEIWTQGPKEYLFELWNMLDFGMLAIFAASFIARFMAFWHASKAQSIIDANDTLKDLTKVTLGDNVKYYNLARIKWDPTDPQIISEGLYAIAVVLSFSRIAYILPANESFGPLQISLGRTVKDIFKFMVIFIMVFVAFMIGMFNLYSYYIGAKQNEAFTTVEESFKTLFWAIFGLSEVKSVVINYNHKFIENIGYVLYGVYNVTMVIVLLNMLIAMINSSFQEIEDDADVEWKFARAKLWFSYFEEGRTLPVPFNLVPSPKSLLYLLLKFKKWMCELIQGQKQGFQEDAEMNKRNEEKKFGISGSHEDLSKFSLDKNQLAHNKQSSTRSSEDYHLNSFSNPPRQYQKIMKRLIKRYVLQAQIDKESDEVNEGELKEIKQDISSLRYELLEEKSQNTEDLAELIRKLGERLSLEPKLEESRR
In words: Antagonist activity at mouse TRPC6 stably expressed in HEK293 cells assessed as inhibition of calcium influx at 10 uM by calcium fluorescence assay. It is filed as cell-based.

For experiment [4], the target named is T4, Short transient receptor potential channel 5 (Homo sapiens, UniProt Q9UL62).
T4 sequence (Q9UL62 whole entry): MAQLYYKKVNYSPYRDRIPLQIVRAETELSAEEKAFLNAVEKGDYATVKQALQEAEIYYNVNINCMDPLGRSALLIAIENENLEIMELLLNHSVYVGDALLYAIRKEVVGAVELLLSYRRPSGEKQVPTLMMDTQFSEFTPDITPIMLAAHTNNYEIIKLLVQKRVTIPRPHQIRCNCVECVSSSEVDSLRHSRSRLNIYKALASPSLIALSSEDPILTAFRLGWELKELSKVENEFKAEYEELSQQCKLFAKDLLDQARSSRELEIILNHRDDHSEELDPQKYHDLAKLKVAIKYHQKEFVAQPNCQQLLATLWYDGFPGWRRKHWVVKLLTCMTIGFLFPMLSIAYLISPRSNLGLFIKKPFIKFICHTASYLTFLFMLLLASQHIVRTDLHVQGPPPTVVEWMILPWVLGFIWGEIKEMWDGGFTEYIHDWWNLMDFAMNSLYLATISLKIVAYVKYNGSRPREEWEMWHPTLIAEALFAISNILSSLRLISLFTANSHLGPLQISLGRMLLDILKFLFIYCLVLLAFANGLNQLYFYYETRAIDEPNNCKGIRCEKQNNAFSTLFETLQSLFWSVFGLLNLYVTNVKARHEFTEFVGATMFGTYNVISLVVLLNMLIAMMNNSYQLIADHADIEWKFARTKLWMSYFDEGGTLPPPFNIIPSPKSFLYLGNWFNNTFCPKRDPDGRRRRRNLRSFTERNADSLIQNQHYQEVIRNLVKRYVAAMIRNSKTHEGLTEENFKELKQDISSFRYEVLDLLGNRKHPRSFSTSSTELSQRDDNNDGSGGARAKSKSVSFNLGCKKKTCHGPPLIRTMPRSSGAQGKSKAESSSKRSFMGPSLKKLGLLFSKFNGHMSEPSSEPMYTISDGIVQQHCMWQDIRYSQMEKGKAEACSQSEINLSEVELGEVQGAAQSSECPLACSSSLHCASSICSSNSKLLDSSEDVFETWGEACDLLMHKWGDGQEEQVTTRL
The experiment in a line: Antagonist activity at TRPC5 (unknown origin) assessed as inhibition of channel activity.

Experiment [5] deals with T3, Short transient receptor potential channel 6 (Mus musculus). The experiment in a line: Antagonist activity at mouse TRPC6 stably expressed in HEK293 cells assessed as inhibition of calcium influx at 10 uM by calcium fluorescence assay relative to control. It is filed as cell-based. Particulars: filed as antagonist.
The target of experiment [6] is T5, Short transient receptor potential channel 6 (Homo sapiens) (UniProt Q9Y210).
T5 sequence (whole entry): T1 sequence (Q9Y210 whole entry)
In words: Antagonist activity at human TRPC6 assessed as inhibition of channel activity at 10 uM relative to control. As to conditions: filed as antagonist.

Regarding `Cn1nnc2c(C(N)=O)ncn2c1=O` [TEMOZOLOMIDE], in the experiment with U-87 MG, the inhibition in vivo at 50 mg/kg/day was determined as 36.5%.

In the case of `Cc1sc(Nc2ccc(Cl)cc2F)nc1C(=O)N1CCC[C@H](C)[C@@H]1C`, the IC50 (commonly the concentration that inhibits the measured activity by half) worked out at 0.021 µM in experiment [1] and 0.003 µM in experiment [2].

With `C=C[C@@](C)(O)CC[C@H]1C(=C)C[C@H](OC(=O)NC)[C@H]2C(C)(C)CCC[C@]12C`, the IC50 in experiment [1] was 0.0058 µM; in experiment [2], 0.84 µM.

In the case of `CC(=O)NCCN(Cc1ccc2ccccc2c1)c1nc(C(=O)Nc2ccc(O)cc2)cs1`, the inhibition (usually the change of the read-out against control, counted positive when it falls) in experiment [3] is “inactive”.

For the compound `CCOC(=O)N1CCC(C)(C2C=C(O)N3N=C(C)C(c4ccc(F)cc4)C3=N2)CC1` (configuration not stated), the IC50 in experiment [1] was 1 µM.

Turning to `O=C1O/C(=C/Br)CCC1c1cccc2ccccc12` (configuration not stated) [BROMOENOL LACTONE], the IC50 in experiment [1] came out at 7.2 µM; in experiment [4], 10.6 µM.

With `N#Cc1ccc(O[C@@H]2c3ccccc3C[C@@H]2N2CCC[C@@H](N)C2)cc1`, the IC50 in experiment [1] amounted to 0.00022 µM.

Take `CC(C)(C)c1ccc(Oc2ccc(C(=O)N3CCC(c4ccc(N)nn4)CC3)cc2)cc1`: the IC50 in experiment [1] came to 0.013 µM.

Consider `CC1CCCN(C(=O)c2nc(Nc3cc4c(cc3F)OCO4)sc2Cl)C1C` (configuration not stated), for which the IC50 in experiment [2] was 0.005 µM.

For `CC1CC(C)CN(C(=O)c2csc(Nc3ccc4c(c3)OCO4)n2)C1` (configuration not stated), the IC50 in experiment [1] and in experiment [2] was 0.01 µM in each case.

As for `COc1cccc2sc(N(CCN(C)C)C(=O)c3ccc4c(c3)CCCC4)nc12`, the inhibition in experiment [5] stood at 84.8%; in experiment [6] it was 84.4%. Besides, in experiment [1], the IC50 was determined as 4.2 µM.
